Measurements as given in article PMC10854894, “A New Benzo[6,7]oxepino[3,2-b] Pyridine Derivative Induces Apoptosis in Canine Mammary Cancer Cell Lines” (Animals : an Open Access Journal from MDPI, 2024).

Key:
Assay type in all cases: cell-based, canine
CMGT071020 cells [1] = assay: Transwell migration assay; conditions: 24 h, vs control (0.1% DMSO)
Method: (§1) The CMC cell migration assay was carried out using Transwell 24-well microplates with an 8 µm pore size (Costar, Corning, NY, USA). Both CMC cell lines were seeded into the upper Transwell insert at a density of 5 × 10^3 cells/well, containing various concentrations of MPOBA (0–200 µM) with 5% FBS in DMEM media. Then, 10% FBS in DMEM medium was added into the lower chambers, and the cells were incubated for 24 h. After an incubation duration of 24 h, the non-invaded cells were removed with a cotton swab from the upper surface of the membrane, and the invaded cells on the lower surface of the membrane were fixed with 100% methanol for 1 min and stained with the Wright–Giemsa stain for 20 min. The number of migrated cells was averaged by counting five random microscope fields for each sample at 4 × magnification in four independent experiments.

REM134 cells [2] = assay: Transwell migration assay; conditions: 24 h, vs control (0.1% DMSO)
Method: as §1

CMGT071020 cells [3] = assay: Annexin V-FITC/PI apoptosis assay, flow cytometry; conditions: 48 h; for percentage of total apoptosis: untreated 5.97%
Method: (§2) The mode of cell death induced by MPOBA was evaluated using FITC Annexin V apoptosis detection kit I (BD Bioscience, San Jose, CA, USA) according to the manufacturer’s protocols. The REM134 and CMGT071020 cell lines were seeded at a density of 2 × 10^4 cells/well in a 12-well plate and allowed to grow for 24 h (60% confluency) prior to treatment with MPOBA at concentrations ranging from 0 to 200 µM for 48 h. After the incubation period, all adhering and floating cells were harvested and transferred into sterile centrifuge tubes. The cells were centrifuged at 400× g for 5 min at room temperature. The supernatant was aspirated, leaving approximately 50 µL of residual fluid in the tubes to avoid disturbing the pellets. FITC Annexin V (5 µL) and PI (5 µL) were added to the tubes containing cell pellets. The mixtures were gently vortexed and incubated for 15 min at room temperature in the dark. A binding buffer (400 µL) was added to each tube. A total of 20,000 events were acquired for each sample using a CytoFLEX flow cytometer (Beckman Coulter, Miami, FL, USA) within an hour. […] The experiment was performed with four replicates. The positive control was doxorubicin-treated CMC cells, while the negative control was 0.1% DMSO-treated CMC cells.

REM134 cells [4] = assay: Annexin V-FITC/PI apoptosis assay, flow cytometry; conditions: 48 h; for percentage of total apoptosis: untreated 5.14%
Method: as §2

CMGT071020 cells [5] = assay: Immunohistochemistry of vimentin and cytokeratin, Allred score; conditions: CMGT071020, 0-200 µM, 48 h, treatment vs control
Method: (§3) The cells were cultured in a T-25 cell culture flask (SPL life science, Gyeonggi-do, Republic of Korea) at a density of 2 × 10^5 cells/well and allowed to incubate for 24 h until they reached 60–70% confluence. They were subsequently treated with MPOBA at varying concentrations from 0 to 200 µM for 48 h. After treatment, cells were harvested using TrypLE and subjected to centrifugation at 1200 rpm for 5 min to obtain cell pellets. Then, the supernatant was replaced with 10% formalin, and the cell pellets were fixed overnight. The fixed cell pellets were embedded in paraffin blocks and sectioned with a thickness of 3 μm. These slide sections were then subjected to the deparaffinization and rehydration processes. For antigen retrieval, a heat-induced method was adopted, utilizing a vegetable steamer in a citrate buffer (pH = 6) at 90–100 °C for 45 min, followed by a cooling period of 30 min. After these preparatory steps, slides were mounted on cover plates within a Sequenza slide rack (Thermo Scientific, Waltham, MA, USA), void of air bubbles, and filled with Tris-buffered saline (TBS) (pH = 7.6). The immunohistochemical detection employed a Novolink™ Polymer Detection Kit (Leica Biosystems, Newcastle, UK) according to the manufacturer’s instructions. This began with the inhibition of endogenous peroxidase activity with a 150 μL peroxidase block at room temperature for 5 min, followed by washing with TBS three times for 3 min each. Subsequently, a 150 μL protein block was applied, incubated for 5 min, and washed three times with TBS for 3 min. Primary antibodies, including a vimentin (VT) mouse anti-human monoclonal antibody (Clone V9, ready-to-use kit, Leica Biosystems, Newcastle, UK) and a multi-cytokeratin (CK) mouse antibody (Clone AE1/AE3, ready-to-use kit, Leica Biosystems, Newcastle, UK), were incubated at 37 °C for 1 h. […]
(§4) A quantitative evaluation of the stained slides was performed utilizing the Allred scoring method and QuPath bioimaging software version 0.4.4 [48] to mitigate potential biases. […] The positive cells were systematically detected using the “positive cell detection” command in the analyze menu. The Allred score was calculated according to the quantity of marked cells and the intensity of the staining, as shown in Table S1. […] The scores and criteria used to quantify the labeled cells were 0, no labeling; 1, labeling in <1% of cells; 2, labeling in 1–10% of cells; 3, labeling in 11–33% of cells; 4, labeling in 34–66% of cells; and 5, labeling in 67–100% of cells. […] The staining intensity was determined visually. The sum of these criteria for each sample determined the final score.

REM134 cells [6] = assay: as above; conditions: REM134, 0-200 µM, 48 h, treatment vs control
Method: as §3, §4

Cc1ncccc1Oc1ccccc1C=O [MPOBA, 2-((2-methylpyridin-3-yl)oxy)benzaldehyde]
percentage of migrated cells (CMGT071020 cells [1]; CMGT071020, 100 µM): 68% | percentage of migrated cells (CMGT071020 cells [1]; CMGT071020, 200 µM): 40% | percentage of migrated cells (REM134 cells [2]; REM134, 100 µM): 35% | percentage of migrated cells (REM134 cells [2]; REM134, 200 µM): 26% | percentage of total apoptosis (CMGT071020 cells [3]; CMGT071020, 100 µM): 21.88% | percentage of total apoptosis (CMGT071020 cells [3]; CMGT071020, 200 µM): 27.07% | viability at 50 µM (CMGT071020 cells [3]; Canis lupus familiaris, CMGT071020, 50 μM, Figure 7A plot, read-out: viable cells): 80.6% | viability at 100 µM (CMGT071020 cells [3]; Canis lupus familiaris, CMGT071020, 100 μM, Figure 7A plot, read-out: viable cells): 72.9% | viability at 200 µM (CMGT071020 cells [3]; Canis lupus familiaris, CMGT071020, 200 μM, Figure 7A plot, read-out: viable cells): 63.4% | viability at 50 µM (REM134 cells [4]; Canis lupus familiaris, REM134, 50 μM, Figure 7A plot, read-out: viable cells): 84.1% | viability at 100 µM (REM134 cells [4]; Canis lupus familiaris, REM134, 100 μM, Figure 7A plot, read-out: viable cells): 75.5% | viability at 200 µM (REM134 cells [4]; Canis lupus familiaris, REM134, 200 μM, Figure 7A plot, read-out: viable cells): 69.6% | percentage of total apoptosis (REM134 cells [4]; REM134, 100 µM): 23.6% | percentage of total apoptosis (REM134 cells [4]; REM134, 200 µM): 28.75% | cytokeratin (CK) expression, Allred score (CMGT071020 cells [5]): no statistically significant difference | vimentin (VT) expression, Allred score (CMGT071020 cells [5]): no statistically significant difference | cytokeratin (CK) expression, Allred score (REM134 cells [6]): no statistically significant difference | vimentin (VT) expression, Allred score (REM134 cells [6]): no statistically significant difference
